Results on 12 molecules are retold here after patent publication US12274729B2, “Formulations and methods for skin care or hyaluronic acid synthesis” (AMILYFE, LLC, priority 2022, dated 2025).

The nature of assay [1]: Preliminary screens of amino acids. As for the experimental part: In addition to the amino acid combinations described above, several other combinations are tested that include, e.g., Trp and/or Arg to determine if inclusion of these amino acids confers additional dermatological benefits. […] At the outset, the following combinations of amino acids are tested: Ala, Gln, Gly, Ser (combo #1); Ala, Gln, Gly, Ser, Val, Ile (combo #2); Ala, Gln, Gly, Ser, Val; Ala, Gln, Gly, Ser, Ile; Ala, Gln, Gly, Ser, Ile, Val, Trp; Ala, Gln, Gly, Ser, Ile, Val, Arg; and Ala, Gln, Gly, Ser, Ile, Val, Trp, Arg.

Assay [2] has as its system barrier marker genes in differentiated normal human epidermal keratinocytes (NHEK). Kind of assay: qPCR mRNA expression of barrier marker genes in differentiated NHEK. Type of assay: cell-based. Conditions: qPCR data from two donors. As for the experimental part: Treatment time—4 h. […] Data from two independent experiments. Exemplary barrier marker genes examined as follows: Epidermal growth factor (EGF); fibroblast growth factor 2 (FGF2); platelet derived growth factor (PDGF); Carnitine Palmitoyltransferase 2 (CPT2); Transglutaminase 4 (TGM4); Peroxisome Proliferator Activated Receptor Delta (PPARD); TNF Receptor Superfamily Member 10d (TNFRSF10D).
To test the effect of amino acid treatment on epithelial skin barrier, a cellular model of differentiated normal human epidermal keratinocytes (NHEK) was utilized. Commercially available NHEK (ATCC), derived from three diverse healthy donors, were used. Based on a multivariate analysis, three amino acids for the treatment: Ser, Gln and Gly were selected.
Using gene arrays, comparative analyses of two datasets were performed in three diverse donors focusing on consistently differentially [filter criterion of fold change 1.5 (positive or negative) and p-value <0.05)] expressed genes following treatment with various amino acids and combinations thereof. qPCR was used to assess the mRNA expression results. The qPCR results confirmed the array results pertaining to differential expression, thereby validating the panel of genes.
mRNA is extracted, converted to cDNA, and analyzed by qPCR method using custom TaqMan array 384-well plates (Thermo Fisher Scientific) containing 34 of the above-mentioned genes. Four control housekeeping genes are included to normalize the mRNA expression: GAPDH, POLR2A, YWHAZ and PGK1. The array plate will contain 38 genes in total and 10 samples can be analyzed in one run of qPCR.
(In general: Quantitative PCR measures a nucleic acid by following its amplification.)

Assay [3] deals with HAS2 mRNA in human-derived epidermal keratinocytes (NHEK). Kind of assay: HAS2 mRNA fold change (qPCR) in keratinocytes. Conditions: 4GAA 4 mM, ROL 10 μM. The assay is classed as cell-based.
The test system of assay [4] is HAS3 mRNA in human-derived epidermal keratinocytes (NHEK). Kind of assay: HAS3 mRNA fold change (qPCR) in keratinocytes. Conditions: 4GAA 4 mM, ROL 10 μM. The assay is classed as cell-based.
Setting [5] is: Donor O and Donor R keratinocytes, 24 h in complete medium.
Setting [6] is: NHEK Donors E, G, O, R, T, 4 h in amino acid-deprived medium.

Turning to `N=C(N)NCCC[C@H](N)C(=O)O` [Arg, arginine], the “effect in preliminary screens” value in assay [1] was “positive effects”.

As for `N[C@@H](Cc1c[nH]c2ccccc12)C(=O)O` [Trp, tryptophan], the “effect in preliminary screens” value in assay [1] is “positive effects”.

In the case of `N[C@@H](Cc1ccc(O)cc1)C(=O)O` [Tyr, tyrosine], the “effectiveness in comparative analysis of qPCR data with scoring system” value (from here on “effectiveness in comparative analysis”) in assay [2] is reported as “least effective”.

For `N[C@@H](CS)C(=O)O` [Cys, cysteine], the “effectiveness in comparative analysis” value in assay [2] was “least effective”.

For the molecule `NCC(=O)O` [Gly, glycine], the “effectiveness in comparative analysis” value in assay [2] is “most effective”.

As to `N[C@@H](CC(=O)O)C(=O)O` [Asp, aspartic acid], in assay [2], the “effectiveness in comparative analysis” value is reported as “least effective”.

`CC1=C(/C=C/C(C)=C/C=C/C(C)=C/CO)C(C)(C)CCC1` [ROL, retinol]: in assay [3] (setting [5]), the “HAS2 mRNA gene expression” value was “upregulated”. Also, the HAS2 gene expression entry in assay [3] (setting [6]) was “upregulated”. Also, in assay [4] (setting [5]), the “HAS3 mRNA gene expression” value is “upregulated”. The HAS3 gene expression result in assay [4] (setting [6]) is “upregulated”.

As for `O=C(O)[C@@H]1CCCN1` [Pro, proline], the “effectiveness in comparative analysis” value in assay [2] is on record as “least effective”.

Take `C[C@H](N)C(=O)O` [Ala, alanine]: the “effectiveness in comparative analysis” value in assay [2] is “most effective”.

On to `N[C@@H](CO)C(=O)O` [Ser, serine], for which the “effectiveness in comparative analysis” value in assay [2] is given as “most effective”.

Consider `NC(=O)CC[C@H](N)C(=O)O` [Gln, glutamine], for which, in assay [2], the “effectiveness in comparative analysis” value is “most effective”.

Consider `C[C@@H](O)[C@H](N)C(=O)O` [Thr, threonine], for which the “effectiveness in comparative analysis” value in assay [2] is recorded as “least effective”.
